Source: US20140073801A1, “PYRROLIDINE DERIVATIVES AS SELECTIVE GLYCOSIDASE INHIBITORS AND USES THEREOF” (Summit Corporation Plc, priority 2011, published 2014)
pEC50, pIC50, pKi: −log10 of the molar value.

Legend:
human OGA [1] = biological target: T1, human OGA (Homo sapiens, UniProt O60502); assay: Determination of IC50 values for inhibition of human OGA; assay type: biochemical
T1 construct: made in house
T1 sequence (O60502 1-916): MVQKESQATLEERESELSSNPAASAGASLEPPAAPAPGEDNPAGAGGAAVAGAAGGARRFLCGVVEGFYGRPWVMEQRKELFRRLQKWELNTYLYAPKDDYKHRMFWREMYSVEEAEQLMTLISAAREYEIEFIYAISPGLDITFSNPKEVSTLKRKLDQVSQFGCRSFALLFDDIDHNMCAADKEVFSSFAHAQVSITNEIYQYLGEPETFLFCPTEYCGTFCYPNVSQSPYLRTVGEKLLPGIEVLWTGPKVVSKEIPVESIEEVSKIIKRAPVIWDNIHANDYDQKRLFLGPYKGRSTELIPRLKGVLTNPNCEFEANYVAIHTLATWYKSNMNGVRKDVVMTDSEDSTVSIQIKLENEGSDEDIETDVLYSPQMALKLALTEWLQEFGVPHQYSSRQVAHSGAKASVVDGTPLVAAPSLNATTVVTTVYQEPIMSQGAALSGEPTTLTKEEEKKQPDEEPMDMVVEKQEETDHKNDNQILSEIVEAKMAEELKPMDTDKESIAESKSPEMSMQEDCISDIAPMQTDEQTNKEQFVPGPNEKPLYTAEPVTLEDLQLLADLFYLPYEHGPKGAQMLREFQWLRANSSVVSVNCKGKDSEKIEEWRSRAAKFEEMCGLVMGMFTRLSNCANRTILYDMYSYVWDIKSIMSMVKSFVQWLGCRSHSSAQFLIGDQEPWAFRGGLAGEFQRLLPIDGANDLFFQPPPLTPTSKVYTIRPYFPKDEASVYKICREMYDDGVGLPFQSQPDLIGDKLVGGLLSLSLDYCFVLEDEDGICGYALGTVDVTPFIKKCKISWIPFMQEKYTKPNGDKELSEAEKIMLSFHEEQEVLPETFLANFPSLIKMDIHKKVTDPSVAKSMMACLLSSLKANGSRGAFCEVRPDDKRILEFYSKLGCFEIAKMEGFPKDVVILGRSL
Procedure: Inhibitors identified from the screen described in Example 1 were evaluated for IC50 using a procedure adapted from Biochem. J. 2009, 420, 221-227. IC50 determination was carried out using a range of inhibitor concentrations from 300 μM to 0.003 μM or 100 μM to 0.001 μM. IC50 values were calculated using XLFit 4.

[2] = system: human β-hexosaminidase [human placenta] (HexA/B); assay: Determination of IC50 values for inhibition of human β-hexosaminidase; assay type: biochemical; settings: ratio
How it was run: (§1)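 Inhibitor titrated from 300 μM to 0.003 μM or 100 μM to 0.001 μM. IC50 values come from curve fits, and selectivity is IC50(β-hexosaminidase)/IC50(human OGA).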

[3] = biological target: T2, human β-hexosaminidase [human placenta] (HexA/B); assay: as above; assay type: biochemical; settings: human β-hexosaminidase, human placenta; room temperature, thirty minutes
T2 construct: other: human β-hexosaminidase, human placenta; room temperature, thirty minutes
How it was run: as §1

human OGA [4] = biological target: T1, human OGA; assay: Determination of Ki values for inhibition of human OGA (4MU-GlcNAc substrate); assay type: biochemical; settings: 2 nM human OGA, McIlvaine buffer pH 7.4, one hour
Procedure: Enzymatic reactions were carried out in McIlvaine buffer (0.2M Na2PO4, 0.1M citric acid; pH 7.4) using 2 nM human OGA and 4MU-GlcNAc as substrate in the presence of inhibitor. For the Ki of AXX inhibitor concentrations were 0, 20, 40, 80, 160 and 320 nM [for the Ki determination of other compounds either the same concentrations or similar concentrations were used] and 4MU-GlcNAc concentrations were 50, 100, 200, 400, 800, 1600, and 3200 μM. Reactions were left for one hour. […] Modes of inhibition were determined by Lineweaver-Burke analysis and Ki values were determined using GraphPad 5 Prism non-linear regression analysis.

[5] = system: O-GlcNAc modified proteins in PC-12 cells or SH-SY5Y cells; assay: Western blot analyses of O-GlcNAc modified proteins in cells; assay type: cell-based; settings: for pEC50: western blot, cells dosed 4 hours at 37° C., cell line not given
Procedure: PC-12 cells or SH-SY5Y cells were dosed with the test compound or vehicle control at 37° C. for 4 hours. Once the incubation was completed the media was removed and cells were lysed. Extracted protein was then used for Western blot analysis using standard molecular biology techniques. The resulting membrane was probed with antibodies specific for tau phosphorylation sites (pSer396, pSer422, pThr231, pSer262) or with antibodies specific for O-GlcNAcylation sites (RL-2 or CTD110.6). The primary antibodies were visualised using appropriate secondary conjugated with the fluorophores Alexa 532 or Alexa 488. Actin was visualised using a FITC conjugated primary antibody. Relative quantification was measured in relation to the actin signal using Image lab software (BRL). Marked increases in O-GlcNAcylated proteins within the cells were observed as compared to controls when cells were dosed with test compound.

human OGA (hOGA) = biological target: T3, human OGA (hOGA) (Homo sapiens, UniProt O60502); assay: Screening of inhibitor library against human OGA (single point, triplicate); assay type: biochemical; settings: 100 μM inhibitor concentration
T3 construct: made in house
T3 sequence (O60502 1-916): T1 sequence (O60502 1-916)
Procedure: Expressed and purified human OGA (hOGA) was screened against a library of compounds (compounds stored in 100% DMSO at a concentration of 10 mM) according to a procedure modified from that detailed in Biochem. J. 2009, 420, 221-227 and using the reaction reagents set out in the Table (below). The modification to the published protocol was that an emission wavelength of 450 nm was used rather than […]. Assays were run at singlepoint in triplicate. Inhibitors for further evaluation were selected based on an average observed inhibition greater than 50%.

pIC50 (human OGA [1]) | Selectivity: IC50(human β-hexosaminidase)/IC50(Human OGA) [2] | pIC50 [3] | pKi (human OGA [4]) | pEC50 [5] | inhibition at 100 µM (human OGA (hOGA)) | Structure (SMILES) | cellular levels of O-GlcNAc modified proteins relative to vehicle (FIG. 2) ([5]; SH-SY5Y cells, 4 hours) | cellular levels of O-GlcNAc modified proteins relative to vehicle (FIG. 1) ([5]; SH-SY5Y cells, 4 hours, varying concentrations)
7.31 | >6085 | < 3.52 | 7.15 | 6.18 |  | CCCCCCN1[C@H](CC(=O)NC)[C@H](O)[C@H](O)[C@H]1CO [Compound A012, 2-((2R,3S,4R,5R)-1-hexyl-3,4-dihydroxy-5-(hydroxymethyl)pyrrolidin-2-yl)-N-methylacetamide] | increase | increase
8.10 | >37037 | < 3.52 | 7.39 | 6.22 |  | CNC(=O)C[C@@H]1[C@H](O)[C@H](O)[C@@H](CO)N1CCCCC(C)C [Compound A021, 2-((2R,3S,4R,5R)-3,4-dihydroxy-5-(hydroxymethyl)-1-(5-methylhexyl)pyrrolidin-2-yl)-N-methylacetamide] | increase | 
> 8.52 | >18000 | 4.27 | 7.96 | 6.59 |  | CNC(=O)C[C@@H]1[C@H](O)[C@H](O)[C@@H](CO)N1CCCc1ccccc1 [Compound A016, 2-((2R,3S,4R,5R)-3,4-dihydroxy-5-(hydroxymethyl)-1-(3-phenylpropyl)pyrrolidin-2-yl)-N-methylacetamide] | increase | 
7.96 | >28571 | < 3.52 | 7.14 | 5.91 |  | CCCNC(=O)C[C@@H]1[C@H](O)[C@H](O)[C@@H](CO)N1CCCCc1ccccc1 [Compound A022, 2-((2R,3S,4R,5R)-3,4-dihydroxy-5-(hydroxymethyl)-1-(4-phenylbutyl)pyrrolidin-2-yl)-N-propylacetamide] |  | 
4.13 | >4 | < 3.52 |  |  | 82.8% | CCCCNC(=O)C[C@@H]1[C@H](O)[C@H](O)[C@@H](CO)N1CCCCCCCCCO [Compound A003, N-butyl-2-((2R,3S,4R,5R)-3,4-dihydroxy-5-(hydroxymethyl)-1-(9-hydroxynonyl)pyrrolidin-2-yl)acetamide] |  | 
> 8.52 | >3633 | 4.96 | 8.52 | 7.70 |  | CNC(=O)C[C@@H]1[C@H](O)[C@H](O)[C@@H](CO)N1CCCCCNS(=O)(=O)c1ccc(-c2ccccc2)cc1 [Compound A066, 2-((2R,3S,4R,5R)-1-(5-([1,1′-biphenyl]-4-ylsulfonamido)pentyl)-3,4-dihydroxy-5-(hydroxymethyl)pyrrolidin-2-yl)-N-methylacetamide] |  | 
7.96 | >27272 | < 3.52 | 6.78 | 6.58 |  | CCNC(=O)C[C@@H]1[C@@H](O)[C@H](O)[C@@H](CO)N1CCCc1ccc(OC)cc1 [Compound A060, 2-((2R,3R,4R,5R)-3,4-dihydroxy-5-(hydroxymethyl)-1-(3-(4-methoxyphenyl)propyl)pyrrolidin-2-yl)-N-ethylacetamide] |  | 
4.24 | >5 | < 3.52 |  |  | 89.6% | CCCCCCCCCN1[C@H](CC(=O)NCCCC)[C@H](O)[C@H](O)[C@H]1CO [Compound A001, N-butyl-2-((2R,3S,4R,5R)-3,4-dihydroxy-5-(hydroxymethyl)-1-nonylpyrrolidin-2-yl)acetamide] |  | 
4.13 | >4 | < 3.52 |  |  | 52.8% | CCCCNC(=O)C[C@H]1N[C@H](CO)[C@@H](O)[C@H]1O [Compound A002, N-butyl-2-((2R,3S,4R,5R)-3,4-dihydroxy-5-(hydroxymethyl)pyrrolidin-2-yl)acetamide] |  | 
